These results are taken from ChEMBL document CHEMBL5724796, “Tm Shift (DSF) assay results for EUbOPEN Chemogenomics Library” (2024).

SMILES strings stand for the structures. Non-standard residues stand in square brackets, D forms with d. Residues, ends and D or L forms follow the SMILES beside them. *: point of attachment. Benzoyl(4-tBu) = CC(C)(C)c1ccc(C(=O)*)cc1; Lys(Et2) = CCN(CC)CCCC[C@H](N)C(=O)O

In one test the target is T1, Peregrin (Homo sapiens) (UniProt P55201).
T1 sequence (whole entry): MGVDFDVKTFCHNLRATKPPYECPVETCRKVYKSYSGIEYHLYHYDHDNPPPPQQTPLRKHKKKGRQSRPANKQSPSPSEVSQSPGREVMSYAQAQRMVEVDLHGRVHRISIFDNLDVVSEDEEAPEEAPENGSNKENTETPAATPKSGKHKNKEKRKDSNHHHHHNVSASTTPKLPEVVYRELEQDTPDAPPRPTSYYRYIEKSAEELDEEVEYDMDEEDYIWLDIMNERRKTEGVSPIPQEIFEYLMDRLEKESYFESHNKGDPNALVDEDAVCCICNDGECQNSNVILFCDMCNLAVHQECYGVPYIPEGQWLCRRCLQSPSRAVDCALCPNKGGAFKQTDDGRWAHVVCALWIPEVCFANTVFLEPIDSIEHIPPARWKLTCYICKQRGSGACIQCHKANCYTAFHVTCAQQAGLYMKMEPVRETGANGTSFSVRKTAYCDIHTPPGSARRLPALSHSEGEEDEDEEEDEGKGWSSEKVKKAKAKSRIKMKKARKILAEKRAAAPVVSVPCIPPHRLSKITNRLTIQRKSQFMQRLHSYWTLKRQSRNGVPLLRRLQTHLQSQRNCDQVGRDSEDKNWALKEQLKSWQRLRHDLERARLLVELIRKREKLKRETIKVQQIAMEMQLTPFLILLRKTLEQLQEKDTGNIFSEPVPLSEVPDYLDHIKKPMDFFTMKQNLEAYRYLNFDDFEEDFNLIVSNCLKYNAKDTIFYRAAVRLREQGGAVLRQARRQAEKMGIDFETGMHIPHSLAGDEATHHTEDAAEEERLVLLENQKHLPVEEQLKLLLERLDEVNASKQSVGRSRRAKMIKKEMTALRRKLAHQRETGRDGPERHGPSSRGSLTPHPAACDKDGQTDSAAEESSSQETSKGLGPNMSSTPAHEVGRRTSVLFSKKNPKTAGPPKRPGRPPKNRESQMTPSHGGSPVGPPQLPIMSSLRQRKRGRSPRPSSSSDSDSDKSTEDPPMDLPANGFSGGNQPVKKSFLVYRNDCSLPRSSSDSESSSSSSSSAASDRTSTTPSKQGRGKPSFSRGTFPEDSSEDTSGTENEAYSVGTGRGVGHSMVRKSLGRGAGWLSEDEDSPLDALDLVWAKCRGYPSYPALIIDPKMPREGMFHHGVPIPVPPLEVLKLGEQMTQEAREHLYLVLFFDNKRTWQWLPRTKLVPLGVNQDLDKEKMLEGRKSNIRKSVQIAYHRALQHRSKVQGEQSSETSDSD
The settings on record: Compound concentration 20.0 uM.

For test [1], the target named is Fibroblast growth factor receptor 2 (Homo sapiens) (UniProt P21802). To be noted: Compound concentration 20.0 uM.
Sequence of Fibroblast growth factor receptor 2 (Homo sapiens) (P21802 22-821 limits assumed): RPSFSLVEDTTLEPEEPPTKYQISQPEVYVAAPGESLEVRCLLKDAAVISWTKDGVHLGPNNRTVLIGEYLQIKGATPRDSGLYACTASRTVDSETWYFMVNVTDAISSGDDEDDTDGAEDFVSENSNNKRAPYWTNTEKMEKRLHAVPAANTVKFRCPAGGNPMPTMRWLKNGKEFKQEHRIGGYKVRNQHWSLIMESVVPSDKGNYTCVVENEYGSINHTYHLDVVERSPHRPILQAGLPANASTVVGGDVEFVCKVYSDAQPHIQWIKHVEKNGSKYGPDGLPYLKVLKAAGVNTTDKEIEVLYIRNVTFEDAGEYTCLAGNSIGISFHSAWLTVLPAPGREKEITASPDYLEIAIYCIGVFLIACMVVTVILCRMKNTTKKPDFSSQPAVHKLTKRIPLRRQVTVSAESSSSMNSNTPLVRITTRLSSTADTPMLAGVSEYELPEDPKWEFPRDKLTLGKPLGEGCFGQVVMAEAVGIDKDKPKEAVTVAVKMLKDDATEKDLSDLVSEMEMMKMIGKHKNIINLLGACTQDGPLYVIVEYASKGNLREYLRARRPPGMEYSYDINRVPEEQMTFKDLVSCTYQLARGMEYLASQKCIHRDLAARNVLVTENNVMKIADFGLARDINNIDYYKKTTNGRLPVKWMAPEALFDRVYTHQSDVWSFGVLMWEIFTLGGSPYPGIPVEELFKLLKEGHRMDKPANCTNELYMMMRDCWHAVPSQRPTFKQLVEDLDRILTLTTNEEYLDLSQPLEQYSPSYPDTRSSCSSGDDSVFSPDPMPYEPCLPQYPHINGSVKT
Description: Thermal Shift Assay. Domain: start/stop: T457-E768

Turning to `CC(=O)N[C@H](C(=O)N[C@@H](CC(=O)O)C(=O)N[C@H](C(=O)N[C@@H](C)C(=O)N[C@H](C=O)CC(=O)O)C(C)C)C(C)C` (Ac-VDVAD-aldehyde), the ΔTm is -0.92 °C on Peregrin (Homo sapiens) and -0.83 °C in test [1].
In the same order, the values of `O=C(c1cccc(-c2ccc(-c3cn(C(=O)N4CCCCC4c4ccccc4)nn3)cc2)c1)N1CCCCC1` (stereo unspecified) are 3.63 °C and 2.55 °C.
In the same order, the values of `N=C(N)SCc1ccc(CN2C(=O)C(=O)c3cc(Br)cc(Br)c32)cc1` are -6.38 °C and -6.45 °C.
In the same order, the values of `COCc1nc2cnc3cc(-c4c(C)noc4C)c(OC[C@H]4CCNC4)cc3c2n1[C@H](C)c1ccccc1` are 0.65 °C and 0.01 °C.
Regarding `COc1cc2/c(=N/c3ccc(Br)cc3F)nc[nH]c2cc1OCC1CCN(C)CC1`, the ΔTm on Peregrin (Homo sapiens) is -0.84 °C; in test [1], 5.47 °C.
In the same order, the values of `CCCNC(=O)[C@H]1O[C@@H]1C(=O)N[C@H](C(=O)N1CCC[C@H]1C(=O)O)[C@@H](C)CC` are -2.2 °C and 0.07 °C.
For `N#C[C@@H]1CCCN1C(=O)CNC(=O)c1ccnc2ccc(OCCCN3CCN(C(=O)CN4CCN(CC(=O)O)CCN(CC(=O)O)CCN(CC(=O)O)CC4)CC3)cc12`, in that order: 1.8 °C and 0.18 °C.
Turning to `Fc1ccc(C(OCCN2CCN(CCCc3ccccc3)CC2)c2ccc(F)cc2)cc1`, the results for the ΔTm (on Peregrin (Homo sapiens); in test [1]) were 0.78 °C and -0.47 °C, respectively.
For `N#Cc1ccc(-c2csc(NN=C3CCCC3)n2)cc1`, in that order: -0.85 °C and 0.36 °C.
In the same order, the values of `CC(C)(C)c1ccc(CN(C(=O)CN(Cc2c(F)c(F)c(F)c(F)c2F)S(=O)(=O)c2ccc(F)cc2)c2ccc(C(=O)NO)cc2)cc1` are -3.76 °C and 1.58 °C.
In the same order, the values of `COc1cc(O)cc(CN2CCc3c(cc(Cn4ccn(C)c4=N)cc3-c3ccc(F)cc3C)C2=O)c1` are -1.15 °C and -1.31 °C.
Regarding `Nc1ccccc1NC(=O)c1ccc(CNC(=O)OCc2cccnc2)cc1`, the ΔTm is -0.57 °C on Peregrin (Homo sapiens) and 0.41 °C in test [1].
For `N[C@@H](CC(=O)N1CCN(C(c2ccc(F)cc2)c2ccc(F)cc2)CC1)C(=O)N1Cc2ccccc2C1`, in that order: -1.34 °C and 0 °C.
In the same order, the values of `CC(C)(O)c1ccc(-c2nc3c(F)cc(F)cc3c(=O)[nH]2)cc1` are -0.9 °C and -3.32 °C.
For `CCOc1ccc(S(=O)(=O)Nc2ccc(Cl)cc2C#Cc2cnc(C(=O)O)cc2OC)c2ncccc12`, in that order: 0 °C and 0.19 °C.
On to `Cn1c(NCCN(CCO)CCCc2ccc([N+](=O)[O-])cc2)cc(=O)n(C)c1=O`, for which the figures for the ΔTm (on Peregrin (Homo sapiens); in test [1]) were 1.28 °C and 0.47 °C, respectively.
In the same order, the values of `O=C(CCCCCCNC(=O)c1cnc(N(c2ccccc2)c2ccccc2Cl)nc1)NO` are -1.49 °C and 0.65 °C.
For `Cc1c(CN2CCC(Nc3ncnc4sc(CC(F)(F)F)cc34)CC2)ccc2c1cc(C#N)n2Cc1cn[nH]c1`, in that order: 2.02 °C and -1.27 °C.
In the same order, the values of `Cc1sc(C(=O)c2cncnc2N[C@@H]2C[C@H](COS(N)(=O)=O)[C@@H](O)C2)cc1[C@@H]1NCCc2ccc(Cl)cc21` are -1.17 °C and 0.33 °C.
Regarding `Nc1ccccc1NC(=O)CCCCCC(=O)Nc1ccccc1`, the ΔTm on Peregrin (Homo sapiens) was -1.41 °C; in test [1] it was 0.58 °C.
For `CCCOC(=O)N1CCN(C(=O)c2ccc3c(Cl)cc(-c4ccc(C5(N)CC5)cc4)nc3c2)C[C@H]1C`, in that order: -1.27 °C and -0.58 °C.
On to `Cc1nc(N)c2nnn(C[C@H]3CN(Cc4nccs4)CCO3)c2n1`, for which the ΔTm on Peregrin (Homo sapiens) is 0.82 °C; in test [1] it was -0.39 °C.
In the same order, the values of `C[C@@H]1CN(c2ncc(Cl)c(Nc3ccc4c(c3)n(CCC(C)(C)O)c(=O)n4C)n2)C[C@H](C)C1(F)F` are -5.71 °C and -3.16 °C.
For `CN(CCCCCCNc1ccnc2cc(Cl)ccc12)CCCCCCNc1ccnc2cc(Cl)ccc12`, in that order: 0.99 °C and 0.43 °C.
In the same order, the values of `O=C(O)C1=CCCN(CCOC(c2ccc(C(F)(F)F)cc2)c2ccc(C(F)(F)F)cc2)C1` are 0.47 °C and -0.15 °C.
Consider `CC1(C)Cn2nc(-c3ccc(F)cn3)c(-c3ccnc4[nH]ncc34)c2CO1`, for which the ΔTm at Peregrin (Homo sapiens) (tested as the 2H-labelled form) was -1.29 °C; in test [1] (tested as the 2H-labelled form), 0.38 °C.
In the case of `C[C@@H]1OC(=O)NN=C1c1ccc(-c2ccc(F)cc2)c(C(F)(F)F)c1`, the ΔTm at Peregrin (Homo sapiens) is 0.4 °C; in test [1], -0.74 °C.
For `O=C(O)CCNC(=S)NCCCC[C@H](NS(=O)(=O)c1cccc(F)c1)C(=O)N[C@@H](Cc1c[nH]c2ccccc12)C(=O)NC1CCC1`, in that order: 1.86 °C and -0.15 °C.
In the case of `Cc1ccc(C)c(-n2sc3cc(F)ccc3c2=O)c1`, the ΔTm on Peregrin (Homo sapiens) was -11.8 °C; in test [1], -0.26 °C.
Consider `CCC(CC)(NC(=O)C(C)C)C(=O)N[C@@H](CCCNC(=N)N)C(=O)NC1(C(=O)NC(c2ccc(F)cc2)c2ccc(F)cc2)CCCC1`, for which the ΔTm is -0.95 °C at Peregrin (Homo sapiens) and -3.44 °C in test [1].
On to `CS(=O)(=O)N1CCN(C(=O)c2cnc3ccc(Cl)cc3c2-c2ccc(C3(C#N)CC3)cc2)CC1`, for which the ΔTm turned out to be 1.84 °C on Peregrin (Homo sapiens) and 0.34 °C in test [1].
For `Cc1cc(/N=N/c2ccc3c(c2)CCC(=O)N3)c(N)cc1O`, in that order: 1.01 °C and 0.16 °C.
In the same order, the values of `O=C(NCCc1cc(C(=O)NO)no1)c1ccc(Cl)c(Cl)c1` are -1.25 °C and 0.8 °C.
In the same order, the values of `CCn1c(=O)c(C)cn(Cc2nnc(-c3ccc(F)c(OC)c3F)s2)c1=O` are -0.72 °C and 0.75 °C.
With `Cc1ncsc1-c1ccc([C@H](C)NC(=O)[C@@H]2C[C@@H](O)CN2C(=O)[C@@H](NC(=O)COCCCOCCNC(=O)C[C@@H]2N=C(c3ccc(Cl)cc3)c3c(sc(C)c3C)-n3c(C)nnc32)C(C)(C)C)cc1`, the thermal shift (ΔTm) is -1.73 °C on Peregrin (Homo sapiens) and -0.49 °C in test [1].
With `CC(=O)N[C@@H](Cc1ccc(O)cc1)C(=O)N[C@H](C(=O)N[C@@H](C)C(=O)N[C@@H](CC(=O)O)C(=O)COC(=O)c1c(C)cccc1C)C(C)C`, the ΔTm on Peregrin (Homo sapiens) is -1.58 °C; in test [1], 0.82 °C.
In the same order, the values of `C[C@@H]1CN(c2nccc(Nc3ccc4c(c3)n(CCC(C)(C)O)c(=O)n4C)n2)C[C@H](C)C1(F)F` are -0.49 °C and -0.7 °C.
`Cc1cc(/N=N/c2ccc(S(=O)(=O)NC3CCCC3)cc2)c(N)cc1O`: the ΔTm at Peregrin (Homo sapiens) was 7.73 °C; in test [1], 2.06 °C.
In the case of `O=C(COc1ccc(-c2oc3cc(O)c(C(=O)O)cc3c2C#Cc2cccc(Cl)c2)cc1)NC1CC1`, the ΔTm on Peregrin (Homo sapiens) was -1.44 °C; in test [1], 0.52 °C.
For `COc1ccc(-c2ccc3c(c2)COC3=O)n2nc(C3(C(=O)OCC(C)C)CC3)nc12`, in that order: 0.76 °C and 0.71 °C.
For `O=C(O)c1cccc(-c2ccc(-c3cn(C(=O)N4CCCCC4Cc4ccccc4)nn3)cc2)c1` (stereo unspecified), in that order: -2.81 °C and -0.39 °C.
For `CN1CC(=O)N2[C@H](c3ccc4c(c3)OCO4)c3[nH]c4ccccc4c3C[C@@H]2C1=O`, in that order: 0.06 °C and -0.7 °C.
In the case of `COc1ccc(OC)c(-c2nnc3n2N=C(c2ccc(OC)c(OC)c2)CS3)c1`, the ΔTm on Peregrin (Homo sapiens) was determined as 0.8 °C; in test [1], 0.4 °C.
Take `C[C@H]1CO[C@@H]2Cn3cc(C(=O)NCc4ccc(F)cc4F)c(=O)c(O)c3C(=O)N12`: the ΔTm on Peregrin (Homo sapiens) was determined as 2.22 °C; in test [1] it was 0.45 °C.
For `Nc1ccccc1NC(=O)c1ccc(CNc2nccc(-c3cccnc3)n2)cc1`, in that order: -0.72 °C and 1.02 °C.
In the same order, the values of `O=C(Nc1ccc2[nH]nc(-c3ccncc3)c2c1)[C@@H]1CCN(CC(=O)N2CCN(c3ccc(-c4ncccn4)cc3)CC2)C1` are -0.34 °C and 0.95 °C.
For `CCN(CC)CCCC[C@H](NC(=O)[C@H](CC(C)C)NC(=O)[C@H](C)NC(=O)[C@H](Cc1ccccc1)NC(=O)c1ccc(C(C)(C)C)cc1)C(=O)N[C@@H](CO)C(=O)OC` ({Benzoyl(4-tBu)}-FAL[Lys(Et2)]S-OMe), in that order: -1.51 °C and 0.43 °C.
As to `Cc1[nH]nc(C(F)(F)F)c1Cc1sc2c(c1C(=O)N1C[C@](C)(O)CO1)c(=O)n(C)c(=O)n2C(C)C`, the ΔTm was found to be 0.94 °C at Peregrin (Homo sapiens) and 1.06 °C in test [1].
